From PubChem BioAssay AID1117347 (Cheminformatics & Chemogenomics Research Group (CCRG), …, 2015) come the findings set out here.

Calls of active or inactive are those of the source. How the calls were made is not given here. Where only a bound is given, the exact number is not on record here.

This assay deals with HeLa cell count decrease. Nature of the assay: decrease in HeLa cell numbers, dose-response curve, cell enumeration, 50% inhibitory concentration (AID 1117347).
Turning to `Nc1ccc2cc3ccc(N)cc3nc2c1`, the IC50 (in general, the point on the concentration scale where inhibition reaches its midpoint) was 1.34 µM.

Consider `CN(C)/N=N/c1nc[nH]c1C(N)=O`, for which the IC50 was > 10 µM (inactive).

Turning to `COc1cc(-c2ccc(=O)[nH]n2)ccc1OC(F)F`, the half-inhibitory concentration (IC50) was 0.0092 µM.

Regarding `CC(C)(C)C1CCC(CC2=C(O)c3ccccc3C(=O)C2=O)CC1` (stereo not given), the IC50 was > 10 µM (inactive). Consider `NCCCC[C@H](N[C@@H](CCc1ccccc1)C(=O)O)C(=O)N1CCC[C@H]1C(=O)O`, for which the IC50 is > 10 µM (inactive). As to `C[C@]12CC[C@@H]3c4ccc(O)cc4CC[C@H]3[C@@H]1CC[C@@H]2OC(=O)CCC1CCCC1`, the IC50 is > 10 µM (inactive).

For `CC(C)C[C@H](NC(=O)[C@H](CCc1ccccc1)NC(=O)CN1CCOCC1)C(=O)N[C@@H](Cc1ccccc1)C(=O)N[C@@H](CC(C)C)C(=O)[C@@]1(C)CO1`, the IC50 was 0.0099 µM. Next, `[O-][n+]1ccccc1SSc1cccc[n+]1[O-]`: 0.843 µM; `CCc1oc2ccccc2c1C(=O)c1cc(I)c(O)c(I)c1`: > 10 µM (inactive); `CCCCCCCCCCOCC(O)CN` (stereo not given): > 10 µM (inactive). Regarding `C[C@@H](O[C@H]1OCCN(Cc2n[nH]c(=O)[nH]2)[C@H]1c1ccc(F)cc1)c1cc(C(F)(F)F)cc(C(F)(F)F)c1`, the IC50 is > 10 µM (inactive). Take `COc1c(C)c2c(c(O)c1C/C=C(\C)CCC(=O)OCCN1CCOCC1)C(=O)OC2`: the IC50 is > 10 µM (inactive). With `CC(C)=CCC/C(C)=C/CC/C(C)=C/C(=O)OCC(=O)[C@@]1(O)CC[C@H]2[C@@H]3CCC4=CC(=O)C=C[C@]4(C)[C@H]3[C@@H](O)C[C@@]21C`, the IC50 is 0.0595 µM. Take `O=c1[nH]c(=O)n([C@H]2C[C@H](O)[C@@H](CO)O2)cc1F`: the IC50 is > 10 µM (inactive). Take `Cc1ccc(Nc2nccc(N(C)c3ccc4c(C)n(C)nc4c3)n2)cc1S(N)(=O)=O`: the IC50 was > 10 µM (inactive). On to `CC[C@@H]([C@H](C)O)n1ncn(-c2ccc(N3CCN(c4ccc(OC[C@@H]5CO[C@@](Cn6cncn6)(c6ccc(F)cc6F)C5)cc4)CC3)cc2)c1=O`, for which the IC50 is > 10 µM (inactive). Consider `O=C(c1cc(O)c(O)c(O)c1)c1ccc(O)c(O)c1O`, for which the IC50 is > 10 µM (inactive). With `O=C(O)CCCc1ccc(N(CCCl)CCCl)cc1`, the IC50 is > 10 µM (inactive). Regarding `CCC(C)(C)C(=O)O[C@H]1C[C@@H](C)C=C2C=C[C@H](C)[C@H](CC[C@@H]3C[C@@H](O)CC(=O)O3)[C@H]21`, the IC50 was > 10 µM (inactive).

Turning to `CC(=O)O[C@@]12CO[C@@H]1C[C@H](O)[C@@]1(C)C(=O)[C@H](O)C3=C(C)[C@@H](OC(=O)[C@H](O)[C@@H](NC(=O)OC(C)(C)C)c4ccccc4)C[C@@](O)([C@@H](OC(=O)c4ccccc4)[C@H]21)C3(C)C`, the IC50 is 0.001 µM.
